{"source": "paper PMC4492579", "about": "“Potent and Selective Triazole-Based Inhibitors of the Hypoxia-Inducible Factor Prolyl-Hydroxylases with Activity in the Murine Brain” (PLoS ONE, 2015)", "key": {"JMJD2E (KDM4E)": {"molecular_target": "T1, JMJD2E (KDM4E) (Homo sapiens, UniProt B2RXH2)", "T1 sequence (B2RXH2 1-506)": "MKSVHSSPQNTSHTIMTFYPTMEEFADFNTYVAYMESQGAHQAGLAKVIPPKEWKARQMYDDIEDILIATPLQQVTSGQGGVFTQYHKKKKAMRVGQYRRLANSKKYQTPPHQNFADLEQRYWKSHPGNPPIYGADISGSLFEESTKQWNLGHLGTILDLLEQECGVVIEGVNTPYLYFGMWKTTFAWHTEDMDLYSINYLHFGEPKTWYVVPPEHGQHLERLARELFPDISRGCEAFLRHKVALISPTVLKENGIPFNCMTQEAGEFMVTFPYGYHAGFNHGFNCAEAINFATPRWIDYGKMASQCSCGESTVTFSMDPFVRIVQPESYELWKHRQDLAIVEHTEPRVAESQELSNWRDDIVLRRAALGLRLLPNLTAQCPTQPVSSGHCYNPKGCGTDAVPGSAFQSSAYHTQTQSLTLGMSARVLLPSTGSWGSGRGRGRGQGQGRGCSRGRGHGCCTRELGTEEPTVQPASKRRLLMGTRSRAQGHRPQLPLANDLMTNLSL", "set-up": "method as in PMID 26682036", "conditions": "cited from earlier work"}, "JMJD1A (KDM3A)": {"molecular_target": "T2, JMJD1A (KDM3A) (Homo sapiens, UniProt Q9Y4C1)", "T2 sequence (Q9Y4C1 1-1321)": "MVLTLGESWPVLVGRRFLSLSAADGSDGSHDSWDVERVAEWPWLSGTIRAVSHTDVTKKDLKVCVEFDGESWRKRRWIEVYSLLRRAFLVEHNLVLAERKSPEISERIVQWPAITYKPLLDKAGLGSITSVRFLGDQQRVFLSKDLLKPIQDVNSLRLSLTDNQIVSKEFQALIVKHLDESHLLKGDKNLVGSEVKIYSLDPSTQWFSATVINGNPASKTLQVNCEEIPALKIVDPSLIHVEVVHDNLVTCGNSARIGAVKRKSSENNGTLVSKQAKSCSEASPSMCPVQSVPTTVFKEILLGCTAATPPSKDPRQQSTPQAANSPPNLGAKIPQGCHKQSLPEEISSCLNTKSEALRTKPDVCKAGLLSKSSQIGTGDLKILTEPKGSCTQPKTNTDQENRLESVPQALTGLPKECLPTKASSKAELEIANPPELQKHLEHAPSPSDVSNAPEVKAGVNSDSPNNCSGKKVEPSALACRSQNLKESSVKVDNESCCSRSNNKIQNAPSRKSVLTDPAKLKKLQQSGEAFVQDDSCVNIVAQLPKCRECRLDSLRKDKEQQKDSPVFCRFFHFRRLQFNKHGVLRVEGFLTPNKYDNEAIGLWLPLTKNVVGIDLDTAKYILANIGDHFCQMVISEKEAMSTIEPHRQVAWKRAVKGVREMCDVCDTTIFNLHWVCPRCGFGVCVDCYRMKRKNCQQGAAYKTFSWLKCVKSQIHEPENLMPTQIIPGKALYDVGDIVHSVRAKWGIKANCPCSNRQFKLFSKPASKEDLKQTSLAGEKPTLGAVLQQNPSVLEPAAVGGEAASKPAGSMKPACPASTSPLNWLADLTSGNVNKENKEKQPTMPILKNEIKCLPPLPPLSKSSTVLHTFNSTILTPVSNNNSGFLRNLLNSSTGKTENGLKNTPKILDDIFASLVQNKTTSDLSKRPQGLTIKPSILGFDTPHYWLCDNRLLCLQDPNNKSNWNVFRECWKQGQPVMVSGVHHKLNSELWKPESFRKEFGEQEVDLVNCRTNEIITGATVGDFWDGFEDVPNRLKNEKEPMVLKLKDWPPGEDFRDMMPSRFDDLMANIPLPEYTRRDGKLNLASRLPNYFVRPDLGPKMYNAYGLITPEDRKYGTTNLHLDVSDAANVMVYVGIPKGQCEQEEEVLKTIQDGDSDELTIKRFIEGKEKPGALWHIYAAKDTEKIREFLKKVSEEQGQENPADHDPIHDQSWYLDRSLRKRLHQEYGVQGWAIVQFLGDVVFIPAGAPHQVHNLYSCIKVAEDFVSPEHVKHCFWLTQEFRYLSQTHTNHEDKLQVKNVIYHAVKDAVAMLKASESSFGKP", "test": "KDM AlphaScreen assay, JMJD1A", "quoted_text": "Inhibition assays for PHD2 (AlphaScreen) [9], the KDMs (AlphaScreen) [17], BBOX [18] and FTO [19] were carried out as previously described. […] IC50 values were calculated using nonlinear regression with normalized dose-response fit using GraphPad Prism 5."}, "HIF target genes": {"system": "HIF target genes", "test": "qRT-PCR of HIF target genes in mouse brain", "assay_type": "in vivo, C57BL/6 mice", "conditions": "1 h treatment", "protocol": "All animal experiments were performed on male C57BL/6 mice aged 3 months (purchased from Harlan Laboratories, Blackthorn) housed in specific pathogen free conditions with free access to water and standard chow. Mice were injected intraperitonially with the inhibitor (dissolved in Hanks’ buffered saline solution, pH 7.0, 5% DMSO final) or vehicle at the indicated doses for the indicated time as previously described. Tissues from treated mice were harvested and ‘snap frozen’ with liquid nitrogen before being stored at -80°C. For immunoblotting, a portion of the tissues was removed, weighed and homogenised in urea/SDS buffer before being analysed by immunoblotting with HIF1α rabbit polyclonal antibody (10006421, Cayman Chemical, 1:1000) or HIF2α rabbit polyclonal antibody (PM9 [27], 1:1000). […]\nGenomic DNA were removed from total RNA preparation using the TURBO DNA-free kit (AM1907, Life Technologies) according to manufacturer’s protocol. […] Relative quantifications were calculated using the ∆∆Ct method normalised to β-actin. […]\nTo investigate whether the induction of HIFα in the mouse brain has an effect on HIF target genes, we performed quantitative real-time PCR (qRT-PCR) analyses on HIF target genes (including those involved in angiogenesis, i.e. Vegfa, Adm and Il6)."}}}
{"compound": "O=C(O)CNC(=O)c1c(O)c2ccccc2n(Cc2ccccc2)c1=O", "note": "[IOX2]", "values": [{"measurement": "IC50", "setting": "JMJD2E (KDM4E)", "result": "> 100", "unit": "µM"}]}
{"compound": "CC(C)(C)OC(=O)c1ccc(-n2[nH]cc(-n3ccnn3)c2=O)nc1", "note": "[IOX4, t-Butyl 6-(5-oxo-4-(1H-1,2,3-triazol-1-yl)-2,5-dihydro-1H-pyrazol-1-yl)nicotinate]", "values": [{"measurement": "IC50", "setting": "JMJD1A (KDM3A)", "result": "> 20", "unit": "µM"}, {"measurement": "mRNA levels of HIF target genes Bnip3, Ldha and Il6 in mouse brain", "setting": "HIF target genes", "result": "remain unaffected"}, {"measurement": "mRNA levels of HIF target genes Epo, Vegfa and Adm in mouse brain", "setting": "HIF target genes", "result": "induced in a dose-dependent manner"}]}
